Assay results as given in PMC9996706, “A curcumin direct protein biosensor for cell‐free prototyping” (Engineering Biology, 2022).

Target: T1, EcCurA (E. coli curcumin reductase, double bond reductase) (Escherichia coli, UniProt P76113)
T1 construct: gene curA
T1 sequence (P76113 1-345): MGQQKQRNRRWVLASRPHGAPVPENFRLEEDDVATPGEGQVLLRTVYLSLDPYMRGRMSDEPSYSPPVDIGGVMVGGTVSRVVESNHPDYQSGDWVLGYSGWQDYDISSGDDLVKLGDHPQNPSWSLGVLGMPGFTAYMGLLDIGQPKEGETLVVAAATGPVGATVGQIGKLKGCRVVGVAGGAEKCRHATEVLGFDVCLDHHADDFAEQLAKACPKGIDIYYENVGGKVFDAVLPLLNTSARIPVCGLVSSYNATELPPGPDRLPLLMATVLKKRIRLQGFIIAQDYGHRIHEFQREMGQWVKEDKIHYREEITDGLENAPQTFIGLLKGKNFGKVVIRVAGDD
Assay: fluorescence titration
Assay type: binding

- Kd: 8.39 µM
SMILES: COc1cc(/C=C/C(=O)CC(=O)/C=C/c2ccc(O)c(OC)c2)ccc1O [curcumin]
